In patent publication US20050014152A1, “Drug transporter and use thereof” (priority 2001, published 2005):
Counter-ions that a name gives are not always drawn.

How the values were obtained:
ABCA8 [1] = target: T1, ABCA8 (Homo sapiens, UniProt O94911); assay: inhibition test of the uptake of 14C-estradiol-β-glucuronide into oocytes by various compounds; type: cell-based; settings: for uptake of 14C-estradiol-β-glucuronide decreased to: inhibitor additive amount 10 μM
T1 construct: expressed in transfected cells; host or cells: Xenopus oocytes (stage V) microinjected with capped cRNA
Experimental: An inhibition test was carried out on the protein encoded by a DNA comprising the nucleotide sequence represented by SEQ ID NO: 2. In the test, in the above described determination of the uptake of ^14C-estradiol-β-glucuronide, various types of compounds were previously added to a reaction medium, so as to examine whether or not the uptake of ^14C-estradiol-β-glucuronide was inhibited by the compounds.

ABCA8 [2] = target: T1, ABCA8; assay: uptake of various isotope-labeled compounds into oocytes; type: cell-based
Experimental: (§1) The cultured oocytes (n=10 to 20) were mixed with 2 to 3 ml of a medium and an isotope-labeled compound, and the mixture was then placed in a small incubator. Small amounts of the cells were serially sampled. Each oocyte was washed with a fresh MBS 3 times, and it was then dissolved in a 10% SDS solution at room temperature for 30 minutes. As such an isotope-labeled compound, ^14C-estradiol-β-glucuronide that is a model probe for MRP (multidrug resistance associated protein), a member of an ABC transporter family, was used. Subsequently, a scintillation cocktail (ACS2, manufactured by Amersham) was added thereto, and then, a radioactivity taken into the oocyte was measured with a liquid scintillation counter (LSC-3500, manufactured by Aloka).
Subsequently, the uptake of various isotope-labeled compounds into cells was measured. Measurement was carried out in the same manner as in Example 1 with the exception that the following compounds were used. • LTC4 (leukotriene C4): a substrate for MRP (an additive amount: 20 μM) • Taurocholic acid: a substrate for OAT (an additive amount: 100 μM) • TEA (tetraethylammonium): a substrate for OCT (an additive amount: 10 nM) • Digoxin: a substrate for MDR (an additive amount: 100 nM) • Doxorubicin: a substrate for MDR (an additive amount: 100 μg/ml) • PAH (para-aminohippuric acid): a substrate for MRP and OAT (an additive amount: 1 mM)

ABCA8 [3] = target: T1, ABCA8; assay: uptake of 3H-indoxyl sulfate into oocytes and its inhibition by probenecid; type: cell-based
Experimental: as §1
(§2) The same procedure was carried out as in Example 1 with the exception that ^3H-labeled indoxyl sulfate, one of the urinary toxins, was isotope-labeled with ^3H was used as a compound in a concentration of 2 μM. At the same time, a system to which probenecid was added in a concentration of 1 mM, and a system to which water was added instead of cRNA, were also subjected to the same test.

ABCA8 [4] = target: T1, ABCA8; assay: uptake of 14C-estradiol-β-glucuronide into Xenopus oocytes injected with cRNA of the drug transporter; type: cell-based
Experimental: A mature female Xenopus purchased from Hamamatsu Animal was bred under normal conditions. Thereafter, stage V oocytes were selected therefrom, and the cells were incubated in a modified Barth's solution (MBS) containing 88 mM NaCl, 1 mM KCl, 2.4 mM NaHCO3, 15 mM Tris-Cl, 0.3 mM CaNO3, 0.82 mM MgSO4, 0.41 mM CaCl2, 10 μg/ml penicillin and 10 μg/ml streptomycin. Thereafter, cRNA was prepared by a known method using a DNA having the nucleotide sequence represented by SEQ ID NO: 1, and an aqueous solution containing the obtained cRNA was injected into the mature Xenopus oocytes by microinjection. For such microinjection, cRNA whose 5′-terminus was capped or 50 nl of water was injected into the oocytes in vitro, using an automatic injector (IM200J, Narishige, Japan). The thus injected oocytes were cultured at 17° C. for 3 days in MBS, while exchanging the medium with a new one every day. 3 days after the culture, the oocytes expressed a drug transporter.
The used cRNA was obtained by […] of cDNA from Kazusa DNA Research Institute, which has been cloned as one of full-length cDNAs obtained from human brain and has been deposited with NCBI (National Center for Biotechnology Information, USA) under accession No. AB020629.
as §1
In this case, the concentration of ^14C-estradiol-β-glucuronide in the medium was 37 nM. […]

ABCA8 [5] = target: T1, ABCA8; assay: ATP dependency of the uptake of 14C-estradiol-β-glucuronide into oocytes; type: cell-based; settings: ATP added, up to 5 mM
Experimental: A protein encoded by a DNA comprising the nucleotide sequence represented by SEQ ID NO: 2has an ATP-binding cassette. Thus, a test was made to see ATP dependency of the uptake of ^14C-estradiol-β-glucuronide. In the test, ATP was added in the above determination of the uptake of ^14C-estradiol-[…], and the same operation was then carried out to determine the uptake of ^14C-estradiol-β-glucuronide.

[6] = substrate: O=S(=O)(O)Oc1c[nH]c2ccccc12; assay: uptake of 3H-indoxyl sulfate into oocytes and its inhibition by probenecid; type: cell-based, human; settings: other: cRNA-injected oocytes
Experimental: as §1, §2

For `CN(C)C(=O)CCSC(SCCC(=O)O)c1cccc(/C=C/c2ccc3ccc(Cl)cc3n2)c1` (centres unmarked) [MK-571], the “uptake of 14C-estradiol-β-glucuronide decreased to” value (ABCA8 [1]) was “approximately 30%”.

For `CN/C(=N/CCSCc1nc[nH]c1C)NC#N` [cimetidine, Cimetidine], the “inhibitory effect on uptake of 14C-estradiol-β-glucuronide” value (“inhibitory effect on uptake” for short) (ABCA8 [1]; additive amount 1 mM) was “no inhibitory effect”.

For `CC[N+](CC)(CC)CC` [TEA, tetraethylammonium], the “uptake of isotope-labeled compound into oocytes” value (ABCA8 [2]; additive amount 10 nM) was “does not have a function to transport”.

With `CCCCC/C=C\C\C=C/C=C/C=C/[C@@H](SC[C@H](NC(=O)CC[C@H](N)C(=O)O)C(=O)NCC(=O)O)[C@@H](O)CCCC(=O)O` [LTC-4, leukotriene C4] the “uptake of isotope-labeled compound into oocytes” value (ABCA8 [2]; additive amount 20 μM) was “taken into oocytes”.

With `C[C@H]1O[C@@H](O[C@H]2[C@@H](O)C[C@H](O[C@H]3[C@@H](O)C[C@H](O[C@H]4CC[C@@]5(C)[C@H](CC[C@@H]6[C@@H]5C[C@@H](O)[C@]5(C)[C@@H](C7=CC(=O)OC7)CC[C@]65O)C4)O[C@@H]3C)O[C@@H]2C)C[C@H](O)[C@@H]1O` [digoxin, Digoxin] the “inhibitory effect on uptake” value (ABCA8 [1]; additive amount 0.25 mM) was “small extent of inhibitory effect” and the “uptake of isotope-labeled compound into oocytes” value (ABCA8 [2]; additive amount 100 nM) was “excreted therefrom (or its original uptake was inhibited)”.

`C[C@H](CCC(=O)NCCS(=O)(=O)O)[C@H]1CC[C@H]2[C@@H]3[C@H](O)C[C@@H]4C[C@H](O)CC[C@]4(C)[C@H]3C[C@H](O)[C@]12C` [taurocholic acid, Taurocholic acid] was tested, and the “uptake of isotope-labeled compound into oocytes” value (ABCA8 [2]; additive amount 100 μM) was “taken into oocytes”.

`O=S(=O)(O)Oc1c[nH]c2ccccc12` [^3H-indoxyl sulfate, indoxyl sulfate] was tested, and the Vmax of uptake (ABCA8 [3]; cRNA-injected oocytes) was 5.5 pmol/hr/egg and the “uptake of 3H-indoxyl sulfate into oocytes, time course” value (ABCA8 [3]; cRNA-injected oocytes, 2 μM) was “linearly increased with time”.

`O=C(C(c1ccccc1)c1ccccc1)N1CCN(CC(O)COc2cccc3ncccc23)CC1` (centres unmarked) [MS-209] was tested, and the “uptake of 14C-estradiol-β-glucuronide decreased to” value (ABCA8 [1]) was “approximately 30%”.

^14C-estradiol-β-glucuronide was tested, and the “intake of 14C-estradiol-β-glucuronide into the cells” value (ABCA8 [4]; 37 nM in the medium, about 60 minutes) was 138±5.5 fmol/hr/egg, the Km (ABCA8 [4]; Michaelis-Menten) was 30.4 µM and the Vmax of uptake (ABCA8 [4]; Michaelis-Menten) was 8.37 pmol/hr/egg. The “influence of ATP concentration on uptake into the cells” value (ABCA8 [5]) was “increased with the increase of ATP concentration”.

For `C[C@@H]1Cc2c(Cl)cc(C(=O)N[C@@H](Cc3ccccc3)C(=O)O)c(O)c2C(=O)O1` [ochratoxin A, Ochratoxin A], the “inhibitory effect on uptake” value (ABCA8 [1]; additive amount 50 μM) was “inhibitory effect”.

With `Nc1ccc(C(=O)NCC(=O)O)cc1` [PAH, para-aminohippuric acid] the “uptake of isotope-labeled compound into oocytes” value (ABCA8 [2]; additive amount 1 mM) was “taken into oocytes”.

In the case of `COc1cccc2c1C(=O)c1c(O)c3c(c(O)c1C2=O)C[C@@](O)(C(=O)CO)C[C@@H]3O[C@H]1C[C@H](N)[C@H](O)[C@H](C)O1` [doxorubicin, Doxorubicin], the “uptake of isotope-labeled compound into oocytes” value (ABCA8 [2]; additive amount 100 μg/ml) is reported as “does not have a function to transport”.

`CCCN(CCC)S(=O)(=O)c1ccc(C(=O)O)cc1` [probenecid, Probenecid] was tested, and the “inhibitory effect on uptake” value (ABCA8 [1]; additive amount 1 mM) was “small extent of inhibitory effect” and the “effect on uptake of 3H-indoxyl sulfate into the cells” value (ABCA8 [3]; probenecid 1 mM, 3H-indoxyl sulfate 2 μM) was “decreased”.

B1: ABCA8 (Homo sapiens) (protein)
chain: MRKRKISVCQQTWALLCKNFLKKWRMKRESLMEWLNSLLLLLCLYIYPHSHQVNDFSSLLTMDLGRVDTFNESRFSVVYTPVTNTTQQIMNKVASTPFLAGKEVLGLPDEESIKEFTANYPEEIVRVTFTNTYSYHLKFLLGHGMPAKKEHKDHTAHCYETNEDVYCEVSVFWKEGFVALQAAINAAIIEITTNHSVMEELMSVTGKNMKMHSFIGQSGVITDLYLFSCIISFSSFIYYASVNVTRERKRMKALMTMMGLRDSAFWLSWGLLYAGFIFIMALFLALVIRSTQFIILSGFMVVFSLFLLYGLSLVALAFLMSILVKKSFLTGLVVFLLTVFWGCLGFTSLYRHLPASLEWILSLLSPFAFMLGMAQLLHLDYDLNSNAFPHPSDGSNLIVATNFMLAFDTCLYLALAIYFEKILPNEYGHRRPPLFFLKSSFWSQTQKTDHVALEDEMDADPSFHDSFEQAPPEFQGKEAIRIRNVTKEYKGKPDKIEALKDLVFDIYEGQITAILGHSGAGKSTLLNILSGLSVPTKGSVTIYNNKLSEMADLENLSKLTGVCPQSNVQFDFLTVRENLRLFAKIKGILPQEVDKEIFLLDEPTAGLDPFSRHQVWNLLKERKTDRVILFSTQFMDEADILADRKVFLSQGKLKCAGSSLFLKKKWGIGYHLSLQLNEICVEENITSLVKQHIPDAKLSAKSEGKLIYTLPLERTNKFPELYKDLDSYPDLGIENYGVSMTTLNEVFLKLEGKSTINESDIAILGEVQAEKADDTERLVEMEQVLSSLNKMRKTIGGVALWRQQICAIARVRLLKLKHERKALLALLLILMAGFCPLLVEYTMVKIYQNSYTWELSPHLYFLAPGQQPHDPLTQLLIINKTGASIDDFIQSVEHQNIALEVDAFGTRNGTDDPSYNGAITVCCNEKNYSFSLACNAKRLNCFPVLMDIVSNGLLGMVKPSVHIRTERSTFLENGQDNPIGFLAYIMFWLVLTSSCPPYIAMSSIDDYKNRARSQLRISGLSPSAYWFGQALVDVSLYFLVFVFIYLMSYISNFEDMLLTIIHIIQIPCAVGYSFSLIFMTYVISFIFRKGRKNSGIWSFCFYVVTVFSVAGFAFSIFESDIPFIFTFLIPPATMIGCLFLSSHLLFSSLFSEERMDVQPFLVFLIPFLHFIIFLFTLRCLEWKFGKKSMRKDPFFRISPRSSDVCQNPEEPEGEDEDVQMERVRTANALNSTNFDEKPVIIASCLRKEYAGKRKGCFSKRKNKIATRNVSFCVRKGEVLGLLGHNGAGKSTSIKVITGDTKPTAGQVLLKGSGGGDALEFLGYCPQENALWPNLTVRQHLEVYAAVKGLRKGDAEVAITRLVDALKLQDQLKSPVKTLSEGIKRKLCFVLSILGNPSVVLLDEPSTGMDPEGQQQMWQAIRATFRNTERGALLTTHYMAEAEAVCDRVAIMVSGRLRCIGSIQHLKSKFGKDYLLEMKVKNLAQVEPLHAEILRLFPQAARQERYSSLMVYKLPVEDVQPLAQAFFKLEKVKQSFDLEEYSLSQSTLEQVFLELSKEQELGDFEEDFDPSVKWKLLPQEEP
notes: expressed in transfected cells; host or cells: Xenopus oocytes (stage V) microinjected with capped cRNA
In the case of B1, the Km [6] is reported as 25.5 µM.
